Laboratory results from patent US20030203975A1, “Anti-cancer agents” (priority 1998, published 2003).
Structures can show the parent of a compound that is named as a salt.

Key:
[1] = tested on: MAC 15A adenocarcinoma of the colon; assay: In vitro chemosensitivity against MAC 15A adenocarcinoma (MTT assay); assay type: cell-based; details: 96 hours continuous exposure
Description: In Vitro Activity Against MAC 15A Adenocarcinoma.
MAC 15A cells were grown in RPMI 1640 medium supplemented with 10% foetal calf serum containing a 1% antibiotic mixture under standard tissue culture conditions and were maintained at 37° C. in a humidified atmosphere of 5% CO2 in air. Cells were harvested from a stock culture in exponential growth phase and plated in 96-well flat-bottomed plates to achieve a final density of 2×10^3 cells per well. After 2 hours incubation medium was replaced with either fresh medium containing 0.5% DMSO (control) or medium containing test compound dissolved in DMSO at a concentrations from 10 mM to 1 nM. Chemosensitivity was assessed using MTT assay by the method of Plumb et al Cancer Research 49 (1989) 4435-4440.
Following 96 hours continuous exposure to drug at 37° C. cells were incubated with fresh drug-free medium immediately prior to addition of MTT solution (5 mg/ml). Medium and MTT were removed after 4 hours and 150 μl of DMSO was added. For each plate the absorbance of the resulting solution was measured at the analytical wavelength 550 nm for formazan product, using a Labsystem Mutiskan. IC50 values were obtained from growth curves of drug concentration against % survival and are expressed in μm.

Compound | melting point [°C] | IC50 ([1]; Mus musculus, MAC15A) [µM] | other results
CC(C)(C)OC(=O)NCC(=O)OCCCNc1ccc(O)c2c1C(=O)c1ccccc1C2=O | 124 |  | 
CC(C)(C)OC(=O)NCC(=O)OCCCNc1ccc(O)c2c1C(=O)c1c(O)cccc1C2=O | 152 |  | 
CC(C)C[C@H](NC(=O)OC(C)(C)C)C(=O)NCC(=O)OCCCNc1cccc2c1C(=O)c1ccccc1C2=O | 86 |  | 
C[C@H](NC(=O)OC(C)(C)C)C(=O)OCCCNc1cccc2c1C(=O)c1ccccc1C2=O | 60 |  | 
C[C@@H](NC(=O)OC(C)(C)C)C(=O)OCCCNc1cccc2c1C(=O)c1ccccc1C2=O | 58 |  | 
CC(C)(C)OC(=O)N[C@H](Cc1ccccc1)C(=O)OCCCNc1cccc2c1C(=O)c1ccccc1C2=O | 168 |  | 
CC(C)(C)OC(=O)N1CCC[C@H]1C(=O)OCCCNc1cccc2c1C(=O)c1ccccc1C2=O | 121 |  | 
CC(C)(C)OC(=O)N1CCC[C@@H]1C(=O)OCCCNc1cccc2c1C(=O)c1ccccc1C2=O | 120 |  | 
CC[C@H](NC(=O)OC(C)(C)C)C(=O)OCCCCNc1cccc2c1C(=O)c1ccccc1C2=O | 58 |  | 
C[C@@H](C(=O)OCCCCNc1cccc2c1C(=O)c1ccccc1C2=O)N(C)C(=O)OC(C)(C)C | 62 |  | 
NCC(=O)OCCCCNc1cccc2c1C(=O)c1ccccc1C2=O (as salt: trifluoroacetate) [Example 81, 1-[4-(glycyloxy)butylamino]anthracene-9,10-dione trifluoroacetate] | 154 |  | 
C[C@H](N)C(=O)OCCNc1cccc2c1C(=O)c1ccccc1C2=O [Example 23, 1-[2-(L-alanyloxy)ethylamino]anthracene-9,10-dione trifluoroacetate] |  | 7.5 | 
CC(C)[C@H](N)C(=O)OCCNc1cccc2c1C(=O)c1ccccc1C2=O [Example 25, 1-[2-(L-valyloxy)ethylamino]anthracene-9,10-dione trifluoroacetate] |  | 30 | 
CC(C)[C@@H](N)C(=O)OCCNc1cccc2c1C(=O)c1ccccc1C2=O [Example 27, 1-[2-(D-valyloxy)ethylamino]anthracene-9,10-dione trifluoroacetate] |  | 14 | 
N[C@@H](Cc1ccccc1)C(=O)OCCCNc1cccc2c1C(=O)c1ccccc1C2=O [Example 39, 1-[3-(L-phenylalanyloxy)propylamino]anthracene-9,10-dione trifluoro-acetate] |  | 3 | 
C[C@H](NC(=O)OC(C)(C)C)C(=O)OCCCCNc1cccc2c1C(=O)c1ccccc1C2=O [Example 42, 1-[4-(N-tertiarybutoxycarbonyl-L-alanyloxy)butylamino] anthracene-9,10-dione] | 102 |  | 
C[C@@H](NC(=O)OC(C)(C)C)C(=O)OCCCCNc1cccc2c1C(=O)c1ccccc1C2=O [Example 44, 1-[4-(N-tertiarybutoxycarbonyl-D-alanyloxy)butylamino] anthracene-9,10-dione] | 100 |  | 
CC(C)[C@H](N)C(=O)OCCCNc1ccc(O)c2c1C(=O)c1ccccc1C2=O [Example 51, 4-hydroxy-1-[3-(L-valyloxy)propylamino]anthracene-9,10-dione tri-fluoroacetate] |  |  | IC50 ([1]; Mus musculus, MAC15A, 96 h): 4.9 µM
CC(C)(C)OC(=O)NCC(=O)OCCNc1cccc2c1C(=O)c1ccccc1C2=O [Example 58, 1-[2-(N-tertiarybutoxycarbonylglycyloxy)ethylamino]anthracene-9,10-dione] | 122 |  | 
N[C@@H](CCCNC(=O)OCc1ccccc1)C(=O)OCCCNc1cccc2c1C(=O)c1ccccc1C2=O [Example 71, 1-[3-(N-δ-benzyloxycarbonyl-L-ornithyloxy)propylaminol]anthracene-9,10-dione trifluoroacetate] |  |  | IC50 [1]: 2.4 µM
N[C@H](C(=O)OCCCNc1cccc2c1C(=O)c1ccccc1C2=O)c1ccccc1 [Example 73, 1-[3-(L-phenylglycyloxy)propylamino]anthracene-9,10dione trifluoro-acetate] |  | 5 | 
N[C@@H](C(=O)OCCCNc1cccc2c1C(=O)c1ccccc1C2=O)c1ccccc1 [Example 75, 1-[3-(D-phenylglycyloxy)propylamino]anthracene-9, 10dione trifluoro-acetate] |  | 4.2 | 

Compound | melting point [°C] | IC50 ([1]; Mus musculus, MAC15A) [µM] | other results
N[C@@H](Cc1c[nH]c2ccccc12)C(=O)OCCCCCONc1cccc2c1C(=O)c1ccccc1C2=O [Example 77, 1-[5-(L-tryptophyloxy)pentoxyamino]anthracene-9,10-dione trifluoro-acetate] |  | 5.5 | 
COc1ccc(C[C@H](N)C(=O)OCCCNc2cccc3c2C(=O)c2ccccc2C3=O)cc1 [Example 79, 1-[3-(O-methyl-L-tyrosyloxy)propylamino]anthracene-9,10dione tri-fluoroacetate] |  |  | IC50 ([1]; Mus musculus, MAC15A, 96 h): 3.5 µM
CC(C)(C)OC(=O)NCC(=O)OCCCCNc1cccc2c1C(=O)c1ccccc1C2=O [Example 80, 1-[4-(N-tertiarybutoxycarbonylglycyloxy)butylamino]anthracene-9,10-dione] | 70 |  | 
NCC(=O)OCCCCNc1cccc2c1C(=O)c1ccccc1C2=O [Example 81, 1-[4-(glycyloxy)butylamino]anthracene-9,10-dione trifluoroacetate] |  | 9.4 | 
CN[C@@H](C)C(=O)OCCCCNc1cccc2c1C(=O)c1ccccc1C2=O [Example 85, 1-[4-(methylalanyloxy)butylamino]anthracene-9,10-dione trifluoro-acetate] |  | 3.2 | 
CCCC(=O)OCCCCNc1cccc2c1C(=O)c1ccccc1C2=O [Example 89, 1-[4-(butanoyloxy)butylamino]anthracene-9,10-dione trifluoroacetate] |  | 4.5 | 
C[C@H](N)C(=O)OCCCCCNc1cccc2c1C(=O)c1ccccc1C2=O [Example 93, 1-[5-(L-alanyloxy)pentylamino]anthracene-9,10-dione trifluoroacetate] |  | 3.5 | 
C[C@@H](N)C(=O)OCCCCCNc1cccc2c1C(=O)c1ccccc1C2=O [Example 95, 1-[5-(D-alanyloxy)pentylamino]anthracene-9,10-dione trifluoroacetate] |  | 3.1 | 
CC(C)(COC(=O)CN)Nc1cccc2c1C(=O)c1ccccc1C2=O [Example 97, 2-[(9,10-dioxoanthryl)amino]-2-methylpropyl 2-aminoacetate trifluoro-acetate] |  |  | IC50 [1]: 15 µM
C[C@H](N)C(=O)OCC(C)(C)Nc1cccc2c1C(=O)c1ccccc1C2=O [Example 99, 2-[(9,10-dioxoanthryl)amino]-2-methylpropyl (2S)-2-amino propanoate trifluoroacetate] |  |  | IC50 [1]: 35 µM
C[C@H](N)C(=O)OCCc1ccc(Nc2cccc3c2C(=O)c2ccccc2C3=O)cc1 [Example 103] |  |  | IC50 [1]: 4.7 µM
C[C@@H](N)C(=O)OCCc1ccc(Nc2cccc3c2C(=O)c2ccccc2C3=O)cc1 [Example 105] |  |  | IC50 [1]: 3.4 µM
NCC(=O)OCCN1CCN(c2cccc3c2C(=O)c2ccccc2C3=O)CC1 [Example 107, 2-[4-(9,10-dioxoanthryl)piperazinyl]ethyl 2-aminoacetate bis-trifluoroacetate] |  |  | IC50 [1]: 24 µM
C[C@H](N)C(=O)OCCOCCNc1cccc2c1C(=O)c1ccccc1C2=O [Example 109, 1-[2-(2-{L-alanyloxy}ethoxy)ethylamino]anthracene-9,10-dione tri-fluoroacetate] |  |  | IC50 ([1]; Mus musculus, MAC15A, 96 h): 11.5 µM
C[C@@H](N)C(=O)OCCOCCNc1cccc2c1C(=O)c1ccccc1C2=O [Example 111, 1-[2-(2-{D-alanyloxy}ethoxy)ethylamino]anthracene-9,10-dione tri-fluoroacetate] |  |  | IC50 ([1]; Mus musculus, MAC15A, 96 h): 24 µM
N[C@@H](Cc1ccccc1)C(=O)OCCOCCNc1cccc2c1C(=O)c1ccccc1C2=O [Example 113, 1-[2-(2-{L-phenylalanyloxy}ethoxy)ethylamino]anthracene-9,10-dione trifluoroacetate] |  | 7 | 
N[C@H](Cc1ccccc1)C(=O)OCCOCCNc1cccc2c1C(=O)c1ccccc1C2=O [Example 115, 1-{2-(2-[D-phenylalanyloxy]ethoxy)ethylamino}anthracene-9,10-dione trifluoroacetate] |  | 12 | 
C[C@H](N)C(=O)OC1CCN(c2cccc3c2C(=O)c2ccccc2C3=O)CC1 [Example 117, 1-(9,10-dioxoanthryl)-4-piperidyl-(2S)-2-aminopropanoate trifluoro-acetate] |  |  | IC50 [1]: 14 µM
C[C@H](N)C(=O)OC[C@@H]1CCCN1c1cccc2c1C(=O)c1ccccc1C2=O [Example 121, [(2S)-1-(9,10-dioxoanthryl)pyrrolidin-2-yl]methyl (2S)-2-amino-propanoate trifluoroacetate] |  |  | IC50 [1]: 22 µM
NCC(=O)NCC(=O)OCCCNc1cccc2c1C(=O)c1ccccc1C2=O [Example 129, 1-[3-(glycylglycyloxy)propylamino]anthracene-9,10-dione trifluoro-acetate] |  | 4 | 
NCC(=O)N1CCC[C@H]1C(=O)OC[C@H](Cc1ccccc1)Nc1ccc(O)c2c1C(=O)c1c(O)cccc1C2=O [Example 135, (2S)-2-[(4,8-dihydroxy-9,10-dioxoanthryl)amino]-3-phenylpropyl (2S) -1-(2-aminoacetyl)pyrrolidine-2-carboxylate trifluoroacetate] |  |  | IC50 [1]: 2.5 µM
(2S)-2-[(9,10-dioxoanthryl)amino]propyl (2S)-2-propanoate trifluoroacetate [Example 119] |  |  | IC50 [1]: 5.5 µM
